From ChEMBL document CHEMBL4387741, “Optimization of novel reversible Bruton's tyrosine kinase inhibitors identified using Tethering-fragment-based screens” (Bioorg Med Chem, 2019)

Assays:
[1] = target: Tyrosine-protein kinase receptor Tie-1 (Homo sapiens) (UniProt P35590); experiment: Inhibition of wild-type human partial length TIE1 (T819 to A1138 residues) expressed in bacterial expression system at 1 uM by Kinomescan method relative to control
[2] = target: Serine/threonine-protein kinase WNK2 (Homo sapiens) (UniProt Q9Y3S1); experiment: Inhibition of wild-type human partial length WNK2 (V47 to D482 residues) expressed in mammalian expression system at 1 uM by Kinomescan method relative to control
[3] = target: Protein kinase C delta type (Homo sapiens) (UniProt Q05655); experiment: Inhibition of wild-type human partial length PRKCD (Q328 to D676 residues) expressed in bacterial expression system at 1 uM by Kinomescan method relative to control
[4] = target: Tyrosine-protein kinase Fyn (Homo sapiens) (UniProt P06241); experiment: Inhibition of wild-type human partial length FYN (T243 to L534 residues) expressed in bacterial expression system at 1 uM by Kinomescan method relative to control
[5] = target: Tyrosine-protein kinase JAK2 (Homo sapiens) (UniProt O60674); experiment: Inhibition of wild-type human partial length JAK2 JH1 catalytic domain (A829 to G1132 residues) expressed in mammalian expression system at 1 uM by Kinomescan method relative to control
Tyrosine-protein kinase JAK2 (Homo sapiens), sequence (O60674 whole entry, the tested form may be a part): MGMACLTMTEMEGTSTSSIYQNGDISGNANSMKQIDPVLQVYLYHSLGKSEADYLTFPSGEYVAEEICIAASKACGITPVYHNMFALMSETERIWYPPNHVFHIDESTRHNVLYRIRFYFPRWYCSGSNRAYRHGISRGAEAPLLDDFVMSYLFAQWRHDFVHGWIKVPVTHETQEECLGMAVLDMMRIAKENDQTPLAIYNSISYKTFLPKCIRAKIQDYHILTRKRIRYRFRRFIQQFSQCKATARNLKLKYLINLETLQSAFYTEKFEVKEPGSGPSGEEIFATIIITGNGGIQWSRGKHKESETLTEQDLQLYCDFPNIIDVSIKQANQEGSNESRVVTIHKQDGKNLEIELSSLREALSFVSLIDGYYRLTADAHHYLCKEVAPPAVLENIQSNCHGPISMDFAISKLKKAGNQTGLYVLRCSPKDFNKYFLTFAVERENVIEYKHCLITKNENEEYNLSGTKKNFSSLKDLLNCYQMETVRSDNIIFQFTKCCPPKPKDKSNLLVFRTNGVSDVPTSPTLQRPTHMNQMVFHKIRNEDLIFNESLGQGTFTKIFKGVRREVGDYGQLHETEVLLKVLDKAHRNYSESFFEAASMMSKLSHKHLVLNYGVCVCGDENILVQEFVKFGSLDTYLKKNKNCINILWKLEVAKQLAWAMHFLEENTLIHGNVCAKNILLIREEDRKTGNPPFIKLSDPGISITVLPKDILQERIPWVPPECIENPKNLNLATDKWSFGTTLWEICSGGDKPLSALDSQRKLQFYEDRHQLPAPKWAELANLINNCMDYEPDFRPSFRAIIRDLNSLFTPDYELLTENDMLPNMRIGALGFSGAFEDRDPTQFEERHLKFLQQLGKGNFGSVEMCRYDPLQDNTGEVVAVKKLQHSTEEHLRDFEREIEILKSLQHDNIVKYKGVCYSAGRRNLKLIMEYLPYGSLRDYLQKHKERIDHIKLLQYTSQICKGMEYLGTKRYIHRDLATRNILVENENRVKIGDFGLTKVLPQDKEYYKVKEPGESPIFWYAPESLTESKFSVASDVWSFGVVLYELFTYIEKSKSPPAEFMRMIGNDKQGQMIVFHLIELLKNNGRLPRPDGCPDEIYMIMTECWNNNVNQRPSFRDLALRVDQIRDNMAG

[6] = test system: Mast/stem cell growth factor receptor Kit (Homo sapiens), P10721 [L576P]; experiment: Inhibition of human partial length KIT L576P mutant (Y545 to D952 residues) expressed in bacterial expression system at 1 uM by Kinomescan method relative to control
[7] = target: Serine/threonine-protein kinase Chk1 (Homo sapiens) (UniProt O14757); experiment: Inhibition of wild-type human partial length CHEK1 (M1 to G289 residues) expressed in bacterial expression system at 1 uM by Kinomescan method relative to control
Serine/threonine-protein kinase Chk1 (Homo sapiens), sequence (O14757 whole entry, the tested form may be a part): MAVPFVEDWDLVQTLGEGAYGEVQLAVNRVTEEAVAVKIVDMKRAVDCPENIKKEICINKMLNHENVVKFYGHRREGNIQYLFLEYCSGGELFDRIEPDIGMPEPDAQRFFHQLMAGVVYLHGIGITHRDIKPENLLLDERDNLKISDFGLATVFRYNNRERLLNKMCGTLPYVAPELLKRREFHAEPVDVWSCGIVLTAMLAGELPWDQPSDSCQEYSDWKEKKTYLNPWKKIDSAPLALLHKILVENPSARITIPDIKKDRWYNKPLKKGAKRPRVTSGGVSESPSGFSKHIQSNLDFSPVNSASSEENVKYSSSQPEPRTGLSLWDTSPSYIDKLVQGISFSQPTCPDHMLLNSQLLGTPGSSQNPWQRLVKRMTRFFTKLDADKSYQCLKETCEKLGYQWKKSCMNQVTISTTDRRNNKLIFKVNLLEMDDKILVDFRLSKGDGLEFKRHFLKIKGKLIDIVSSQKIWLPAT

[8] = target: Serine/threonine-protein kinase 35 (Homo sapiens) (UniProt Q8TDR2); experiment: Inhibition of wild-type human partial length STK35 (G182 to A534 residues) expressed in bacterial expression system at 1 uM by Kinomescan method relative to control
[9] = target: Mitogen-activated protein kinase kinase kinase kinase 1 (Homo sapiens) (UniProt Q92918); experiment: Inhibition of wild-type human full length HPK1 (M1 to R799 residues) expressed in bacterial expression system at 1 uM by Kinomescan method relative to control
[10] = target: Bone morphogenetic protein receptor type-1B (Homo sapiens) (UniProt O00238); experiment: Inhibition of wild-type human partial length BMPR1B (D178 to L502 residues) expressed in mammalian expression system at 1 uM by Kinomescan method relative to control
[11] = target: Serine/threonine-protein kinase SBK1 (Homo sapiens) (UniProt Q52WX2); experiment: Inhibition of wild-type human partial length SBK1 (P23 to P348 residues) expressed in mammalian expression system at 1 uM by Kinomescan method relative to control
[12] = test system: Receptor-type tyrosine-protein kinase FLT3 (Homo sapiens), P36888 [R834Q]; experiment: Inhibition of human partial length FLT3 R834Q mutant (V592 to Y969 residues) expressed in mammalian expression system at 1 uM by Kinomescan method relative to control
[13] = target: Hepatocyte growth factor receptor (Homo sapiens) (UniProt P08581); experiment: Inhibition of wild-type human partial length MET (D1010 to S1367 residues) expressed in bacterial expression system at 10 uM by Kinomescan method relative to control
[14] = target: Serine/threonine-protein kinase SIK1 (Homo sapiens) (UniProt P57059); experiment: Inhibition of wild-type human partial length SIK (M1 to Y304 residues) expressed in bacterial expression system at 10 uM by Kinomescan method relative to control
[15] = target: Ephrin type-A receptor 6 (Homo sapiens) (UniProt Q9UF33); experiment: Inhibition of wild-type human partial length EPHA6 (Y700 to E1046 residues) expressed in bacterial expression system at 10 uM by Kinomescan method relative to control
[16] = target: Discoidin domain-containing receptor 2 (Homo sapiens) (UniProt Q16832); experiment: Inhibition of wild-type human partial length DDR2 (V555 to E855 residues) expressed in mammalian expression system at 10 uM by Kinomescan method relative to control
[17] = target: MAP/microtubule affinity-regulating kinase 3 (Homo sapiens) (UniProt P27448); experiment: Inhibition of wild-type human full length MARK3 (M1 to L729 residues) expressed in bacterial expression system at 10 uM by Kinomescan method relative to control
MAP/microtubule affinity-regulating kinase 3 (Homo sapiens), sequence (P27448 whole entry, looked up, the tested form may be a part): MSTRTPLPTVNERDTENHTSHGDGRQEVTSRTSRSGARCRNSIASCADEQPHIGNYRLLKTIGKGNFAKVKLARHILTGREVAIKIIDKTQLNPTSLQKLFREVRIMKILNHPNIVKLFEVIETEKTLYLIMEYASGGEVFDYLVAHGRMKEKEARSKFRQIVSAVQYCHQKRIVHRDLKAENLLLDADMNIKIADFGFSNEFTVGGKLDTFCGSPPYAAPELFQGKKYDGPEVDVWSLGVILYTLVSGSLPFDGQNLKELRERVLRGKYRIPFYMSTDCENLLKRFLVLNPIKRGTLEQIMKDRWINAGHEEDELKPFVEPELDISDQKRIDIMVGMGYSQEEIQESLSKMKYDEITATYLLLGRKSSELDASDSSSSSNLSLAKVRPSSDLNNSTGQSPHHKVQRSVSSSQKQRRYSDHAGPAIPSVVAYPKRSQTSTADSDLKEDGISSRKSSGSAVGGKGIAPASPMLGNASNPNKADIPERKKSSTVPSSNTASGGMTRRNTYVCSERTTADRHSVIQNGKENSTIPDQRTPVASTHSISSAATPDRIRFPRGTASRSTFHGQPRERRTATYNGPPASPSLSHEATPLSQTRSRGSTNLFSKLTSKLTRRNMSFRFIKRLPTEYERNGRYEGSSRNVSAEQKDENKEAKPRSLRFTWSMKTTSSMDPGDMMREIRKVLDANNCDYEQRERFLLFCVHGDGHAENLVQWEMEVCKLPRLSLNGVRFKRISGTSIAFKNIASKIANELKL

[18] = target: Serine/threonine-protein kinase 38-like (Homo sapiens) (UniProt Q9Y2H1); experiment: Inhibition of wild-type human partial length NDR2 (N34 to E447 residues) expressed in bacterial expression system at 10 uM by Kinomescan method relative to control
[19] = target: Ephrin type-A receptor 8 (Homo sapiens) (UniProt P29322); experiment: Inhibition of wild-type human partial length EPHA8 (Q608 to C920 residues) expressed in bacterial expression system at 10 uM by Kinomescan method relative to control
Ephrin type-A receptor 8 (Homo sapiens), sequence (P29322 whole entry, the tested form may be a part): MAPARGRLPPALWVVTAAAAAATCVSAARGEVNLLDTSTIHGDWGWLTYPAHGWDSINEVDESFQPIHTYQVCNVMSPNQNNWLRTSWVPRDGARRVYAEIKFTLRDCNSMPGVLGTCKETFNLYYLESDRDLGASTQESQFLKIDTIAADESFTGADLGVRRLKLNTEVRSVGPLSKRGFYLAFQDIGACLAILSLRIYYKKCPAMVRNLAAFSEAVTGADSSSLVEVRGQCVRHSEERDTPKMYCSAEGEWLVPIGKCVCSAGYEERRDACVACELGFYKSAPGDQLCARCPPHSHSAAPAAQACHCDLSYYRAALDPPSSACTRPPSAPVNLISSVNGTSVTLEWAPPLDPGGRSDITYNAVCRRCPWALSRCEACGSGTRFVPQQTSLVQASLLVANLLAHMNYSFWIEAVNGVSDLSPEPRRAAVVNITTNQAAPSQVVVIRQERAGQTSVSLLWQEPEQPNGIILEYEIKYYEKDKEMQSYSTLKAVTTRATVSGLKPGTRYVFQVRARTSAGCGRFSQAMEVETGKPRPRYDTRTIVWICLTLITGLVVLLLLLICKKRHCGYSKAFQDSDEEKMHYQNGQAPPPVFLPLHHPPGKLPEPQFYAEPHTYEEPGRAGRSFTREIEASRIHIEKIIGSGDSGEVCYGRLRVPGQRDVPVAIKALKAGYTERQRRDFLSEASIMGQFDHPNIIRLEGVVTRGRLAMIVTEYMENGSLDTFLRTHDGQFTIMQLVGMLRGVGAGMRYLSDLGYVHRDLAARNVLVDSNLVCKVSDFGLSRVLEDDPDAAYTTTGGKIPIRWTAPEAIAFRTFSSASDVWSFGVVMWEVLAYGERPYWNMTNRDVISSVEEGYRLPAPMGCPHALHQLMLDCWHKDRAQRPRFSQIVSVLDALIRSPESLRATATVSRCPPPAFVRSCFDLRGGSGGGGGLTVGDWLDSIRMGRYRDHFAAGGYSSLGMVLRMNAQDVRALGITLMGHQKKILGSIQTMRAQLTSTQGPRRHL

[20] = target: Mitogen-activated protein kinase 10 (Homo sapiens) (UniProt P53779); experiment: Inhibition of wild-type human partial length JNK3 (V28 to Q422 residues) expressed in mammalian expression system at 10 uM by Kinomescan method relative to control
[21] = target: Serine/threonine-protein kinase 32A (Homo sapiens) (UniProt Q8WU08); experiment: Inhibition of wild-type human full length YANK1 (M1 to L396 residues) expressed in mammalian expression system at 10 uM by Kinomescan method relative to control
[22] = target: Mitogen-activated protein kinase kinase kinase 1 (Homo sapiens) (UniProt Q13233); experiment: Inhibition of wild-type human partial length MAP3K1 (L1202 to W1512 residues) expressed in mammalian expression system at 10 uM by Kinomescan method relative to control
Mitogen-activated protein kinase kinase kinase 1 (Homo sapiens), sequence (Q13233 whole entry, the tested form may be a part): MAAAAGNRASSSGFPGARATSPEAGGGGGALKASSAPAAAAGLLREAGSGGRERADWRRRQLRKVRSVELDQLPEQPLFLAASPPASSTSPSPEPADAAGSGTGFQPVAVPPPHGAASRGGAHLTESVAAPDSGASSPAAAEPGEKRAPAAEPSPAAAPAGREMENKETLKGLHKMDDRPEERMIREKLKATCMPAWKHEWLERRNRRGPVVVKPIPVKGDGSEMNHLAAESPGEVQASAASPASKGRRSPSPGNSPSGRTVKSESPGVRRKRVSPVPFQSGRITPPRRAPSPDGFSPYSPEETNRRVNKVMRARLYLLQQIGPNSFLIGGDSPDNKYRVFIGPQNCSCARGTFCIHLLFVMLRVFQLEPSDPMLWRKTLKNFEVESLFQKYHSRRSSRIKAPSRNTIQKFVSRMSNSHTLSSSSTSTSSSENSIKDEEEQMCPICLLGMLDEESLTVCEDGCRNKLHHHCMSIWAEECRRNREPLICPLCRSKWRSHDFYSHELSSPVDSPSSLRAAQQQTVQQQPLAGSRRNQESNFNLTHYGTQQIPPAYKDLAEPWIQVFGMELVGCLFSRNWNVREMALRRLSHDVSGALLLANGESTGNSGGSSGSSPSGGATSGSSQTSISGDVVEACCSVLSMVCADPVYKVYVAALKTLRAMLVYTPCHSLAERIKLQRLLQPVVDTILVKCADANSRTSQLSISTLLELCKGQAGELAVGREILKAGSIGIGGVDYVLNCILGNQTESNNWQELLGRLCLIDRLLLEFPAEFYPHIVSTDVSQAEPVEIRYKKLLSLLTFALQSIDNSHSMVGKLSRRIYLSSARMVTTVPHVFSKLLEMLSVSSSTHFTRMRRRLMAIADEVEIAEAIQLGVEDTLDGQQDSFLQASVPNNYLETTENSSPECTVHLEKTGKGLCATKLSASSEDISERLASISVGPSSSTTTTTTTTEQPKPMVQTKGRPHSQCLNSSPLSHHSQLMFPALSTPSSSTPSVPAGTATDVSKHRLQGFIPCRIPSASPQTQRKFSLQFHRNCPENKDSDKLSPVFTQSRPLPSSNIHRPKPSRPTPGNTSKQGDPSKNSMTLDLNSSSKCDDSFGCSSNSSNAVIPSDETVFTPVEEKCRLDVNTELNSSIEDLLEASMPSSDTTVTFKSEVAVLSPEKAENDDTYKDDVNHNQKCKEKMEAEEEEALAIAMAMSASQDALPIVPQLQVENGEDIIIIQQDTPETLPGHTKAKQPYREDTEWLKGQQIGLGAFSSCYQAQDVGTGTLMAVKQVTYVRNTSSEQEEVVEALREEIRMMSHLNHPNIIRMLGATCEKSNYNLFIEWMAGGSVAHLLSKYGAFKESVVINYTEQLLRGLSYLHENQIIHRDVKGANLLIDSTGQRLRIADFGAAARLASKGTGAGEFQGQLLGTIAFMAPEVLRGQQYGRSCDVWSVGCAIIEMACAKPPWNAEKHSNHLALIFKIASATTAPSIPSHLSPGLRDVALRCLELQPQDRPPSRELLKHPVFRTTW

[23] = target: Serine/threonine-protein kinase 33 (Homo sapiens) (UniProt Q9BYT3); experiment: Inhibition of wild-type human full length STK33 (M1 to L514 residues) expressed in bacterial expression system at 10 uM by Kinomescan method relative to control
[24] = target: SRSF protein kinase 1 (Homo sapiens) (UniProt Q96SB4); experiment: Inhibition of wild-type human full length SRPK1 (M1 to S655 residues) expressed in bacterial expression system at 10 uM by Kinomescan method relative to control
[25] = target: Mitogen-activated protein kinase 11 (Homo sapiens) (UniProt Q15759); experiment: Inhibition of wild-type human full length p38-beta (M1 to Q364 residues) expressed in bacterial expression system at 10 uM by Kinomescan method relative to control
[26] = target: Activated CDC42 kinase 1 (Homo sapiens) (UniProt Q07912); experiment: Inhibition of wild-type human partial length TNK2 (S159 to D474 residues) expressed in bacterial expression system at 10 uM by Kinomescan method relative to control
[27] = test system: Epidermal growth factor receptor (Homo sapiens), P00533 [T790M]; experiment: Inhibition of human partial length EGFR T790M mutant (R669 to G1022 residues) expressed in mammalian expression system at 10 uM by Kinomescan method relative to control

`O=C(Nc1cccc([C@@H]2CN(c3ncnc4[nH]ccc34)CCN2CCO)c1)Nc1c(F)cccc1N1CCCC1` gave an inhibition [1] of 99%, an inhibition [2] of 99% and an inhibition [3] of 85%. The inhibition [4] was 52%, the inhibition [5] was 0% and the inhibition [6] was 35%. For the same compound, the inhibition [7] was 99%, the inhibition [8] was 100% and the inhibition [9] was 100%. For the same compound, the inhibition [10] was 63%, the inhibition [11] was 69% and the inhibition [12] was 47%.
`O=C(Nc1cccc([C@H]2CCCN(c3ncnc4[nH]ccc34)C2)c1)Nc1ccccc1N1CCCC1` gave an inhibition [13] of 86%, an inhibition [14] of 48% and an inhibition [15] of 51%. It also gave an inhibition [16] of 0.55%, an inhibition [17] of 100% and an inhibition [18] of 100%. The inhibition [19] was 40%, the inhibition [20] was 64% and the inhibition [21] was 98%. For the same compound, the inhibition [22] was 39%, the inhibition [23] was 100% and the inhibition [24] was 0.45%. It also gave an inhibition [25] of 100%, an inhibition [26] of 100% and an inhibition [27] of 66%.
